Activity calls are given as the source filed them. Rule as the data show it, for most assays here: actives have a measured Kd and inactives only a lower limit.
Biological target: T1, EKC/KEOPS complex subunit TP53RK (Homo sapiens, UniProt Q96S44)
T1 sequence (Q96S44 whole entry): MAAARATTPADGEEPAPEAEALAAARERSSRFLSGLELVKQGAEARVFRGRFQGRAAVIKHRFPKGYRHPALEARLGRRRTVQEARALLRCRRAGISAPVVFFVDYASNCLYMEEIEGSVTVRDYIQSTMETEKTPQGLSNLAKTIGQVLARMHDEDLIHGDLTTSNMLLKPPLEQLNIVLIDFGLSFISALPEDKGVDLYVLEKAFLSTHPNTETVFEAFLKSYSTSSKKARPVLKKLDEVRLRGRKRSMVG
Also: in the data inactive means no Kd found up to 30 µM.

Question: With `CN1CCC(COc2cnc(-c3cccc(Cn4nc(-c5cccc(C#N)c5)ccc4=O)c3)nc2)CC1` [TEPOTINIB] as the compound, how does the Kd read?
Answer: Its Kd is > 30 µM (inactive).

Question: For `O=c1sn(-c2cccc3ccccc23)c(=O)n1Cc1ccccc1` [TIDEGLUSIB], which Kd is on record?
Answer: Its Kd is > 30 µM (inactive).

Question: With `COc1cc2nccc(Oc3ccc(NC(=O)Nc4cc(C)on4)c(Cl)c3)c2cc1OC` [TIVOZANIB] as the compound, how does the Kd read?
Answer: Its Kd is > 30 µM (inactive).

Question: For `CC(=O)Nc1cccc(-n2c(=O)n(C3CC3)c(=O)c3c(Nc4ccc(I)cc4F)n(C)c(=O)c(C)c32)c1` [TRAMETINIB], which Kd is on record?
Answer: The Kd was > 30 µM (inactive).

Biological target: GTP-binding protein 4 (Homo sapiens, UniProt Q9BZE4)

Question: How did the Kd turn out when `CN1CCC(COc2cnc(-c3cccc(Cn4nc(-c5cccc(C#N)c5)ccc4=O)c3)nc2)CC1` [TEPOTINIB] was run?
Answer: Its Kd is > 30 µM (inactive).

Question: For `O=c1sn(-c2cccc3ccccc23)c(=O)n1Cc1ccccc1` [TIDEGLUSIB], which Kd is on record?
Answer: Its Kd is > 30 µM (inactive).

Question: For `COc1cc2nccc(Oc3ccc(NC(=O)Nc4cc(C)on4)c(Cl)c3)c2cc1OC` [TIVOZANIB], which Kd is on record?
Answer: The Kd was > 30 µM (inactive).

Question: For `CC(=O)Nc1cccc(-n2c(=O)n(C3CC3)c(=O)c3c(Nc4ccc(I)cc4F)n(C)c(=O)c(C)c32)c1` [TRAMETINIB], which Kd is on record?
Answer: The Kd was > 30 µM (inactive).

Biological target: Ephrin type-A receptor 5 (Homo sapiens, UniProt P54756)
Sequence (P54756 whole entry): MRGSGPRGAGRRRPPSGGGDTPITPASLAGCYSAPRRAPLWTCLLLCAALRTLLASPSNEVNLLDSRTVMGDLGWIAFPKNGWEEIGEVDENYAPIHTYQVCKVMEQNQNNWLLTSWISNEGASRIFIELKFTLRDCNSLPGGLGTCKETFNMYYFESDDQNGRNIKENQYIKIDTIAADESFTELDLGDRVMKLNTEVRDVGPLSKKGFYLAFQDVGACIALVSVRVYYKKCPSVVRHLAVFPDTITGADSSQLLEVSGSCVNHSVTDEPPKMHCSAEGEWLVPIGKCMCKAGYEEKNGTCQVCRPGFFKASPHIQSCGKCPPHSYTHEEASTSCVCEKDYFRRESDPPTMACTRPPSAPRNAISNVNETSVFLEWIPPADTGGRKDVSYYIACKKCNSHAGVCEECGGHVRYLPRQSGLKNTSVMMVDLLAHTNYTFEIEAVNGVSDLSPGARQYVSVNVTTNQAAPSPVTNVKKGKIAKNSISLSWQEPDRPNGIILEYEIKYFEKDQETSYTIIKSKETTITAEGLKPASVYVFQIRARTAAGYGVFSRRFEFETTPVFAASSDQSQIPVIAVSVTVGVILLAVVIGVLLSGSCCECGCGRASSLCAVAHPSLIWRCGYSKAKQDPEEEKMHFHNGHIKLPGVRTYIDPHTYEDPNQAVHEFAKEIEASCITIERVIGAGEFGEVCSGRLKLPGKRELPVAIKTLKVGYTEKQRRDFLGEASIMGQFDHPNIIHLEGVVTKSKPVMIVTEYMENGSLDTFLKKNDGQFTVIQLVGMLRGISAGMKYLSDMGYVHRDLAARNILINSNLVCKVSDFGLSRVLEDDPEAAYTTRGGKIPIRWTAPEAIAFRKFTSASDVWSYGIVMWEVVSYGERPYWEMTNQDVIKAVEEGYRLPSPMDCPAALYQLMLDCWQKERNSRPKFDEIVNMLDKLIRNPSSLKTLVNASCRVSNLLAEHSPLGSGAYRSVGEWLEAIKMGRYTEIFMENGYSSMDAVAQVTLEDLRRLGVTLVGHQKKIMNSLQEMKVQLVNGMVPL

Question: `CN1CCC(COc2cnc(-c3cccc(Cn4nc(-c5cccc(C#N)c5)ccc4=O)c3)nc2)CC1` [TEPOTINIB] was tested. Which Kd did it give?
Answer: Its Kd is > 30 µM (inactive).

Question: Which Kd does the source give for `O=c1sn(-c2cccc3ccccc23)c(=O)n1Cc1ccccc1` [TIDEGLUSIB] here?
Answer: Its Kd is > 30 µM (inactive).

Question: How did the Kd turn out when `COc1cc2nccc(Oc3ccc(NC(=O)Nc4cc(C)on4)c(Cl)c3)c2cc1OC` [TIVOZANIB] was run?
Answer: Its Kd is 0.601 µM (active).

Question: How did the Kd turn out when `CC(=O)Nc1cccc(-n2c(=O)n(C3CC3)c(=O)c3c(Nc4ccc(I)cc4F)n(C)c(=O)c(C)c32)c1` [TRAMETINIB] was run?
Answer: The Kd was > 30 µM (inactive).

Biological target: T2, Dual specificity mitogen-activated protein kinase kinase 5 (Homo sapiens, UniProt Q13163)
T2 sequence (Q13163 whole entry): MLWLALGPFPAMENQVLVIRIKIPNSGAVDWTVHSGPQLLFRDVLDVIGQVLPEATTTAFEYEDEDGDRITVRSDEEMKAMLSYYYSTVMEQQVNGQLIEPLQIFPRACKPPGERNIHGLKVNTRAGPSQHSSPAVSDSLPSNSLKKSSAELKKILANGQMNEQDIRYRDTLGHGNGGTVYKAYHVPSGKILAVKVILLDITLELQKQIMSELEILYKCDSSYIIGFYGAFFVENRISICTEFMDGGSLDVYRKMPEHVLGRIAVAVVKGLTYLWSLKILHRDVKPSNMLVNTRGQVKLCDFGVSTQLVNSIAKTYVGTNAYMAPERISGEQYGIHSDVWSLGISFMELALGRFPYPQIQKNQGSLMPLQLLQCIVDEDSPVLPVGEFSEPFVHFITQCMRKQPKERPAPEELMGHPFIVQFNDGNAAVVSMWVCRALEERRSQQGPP

Question: How did the Kd turn out when `CN1CCC(COc2cnc(-c3cccc(Cn4nc(-c5cccc(C#N)c5)ccc4=O)c3)nc2)CC1` [TEPOTINIB] was run?
Answer: The Kd was > 30 µM (inactive).

Question: `O=c1sn(-c2cccc3ccccc23)c(=O)n1Cc1ccccc1` [TIDEGLUSIB] was tested. Which Kd did it give?
Answer: The Kd was > 30 µM (inactive).

Question: With `COc1cc2nccc(Oc3ccc(NC(=O)Nc4cc(C)on4)c(Cl)c3)c2cc1OC` [TIVOZANIB] as the compound, how does the Kd read?
Answer: The Kd was > 30 µM (inactive).

Question: Which Kd does the source give for `CC(=O)Nc1cccc(-n2c(=O)n(C3CC3)c(=O)c3c(Nc4ccc(I)cc4F)n(C)c(=O)c(C)c32)c1` [TRAMETINIB] here?
Answer: Its Kd is > 30 µM (inactive).

Biological target: T3, Serine/threonine-protein kinase 3 (Homo sapiens, UniProt Q13188)
T3 sequence (Q13188 whole entry): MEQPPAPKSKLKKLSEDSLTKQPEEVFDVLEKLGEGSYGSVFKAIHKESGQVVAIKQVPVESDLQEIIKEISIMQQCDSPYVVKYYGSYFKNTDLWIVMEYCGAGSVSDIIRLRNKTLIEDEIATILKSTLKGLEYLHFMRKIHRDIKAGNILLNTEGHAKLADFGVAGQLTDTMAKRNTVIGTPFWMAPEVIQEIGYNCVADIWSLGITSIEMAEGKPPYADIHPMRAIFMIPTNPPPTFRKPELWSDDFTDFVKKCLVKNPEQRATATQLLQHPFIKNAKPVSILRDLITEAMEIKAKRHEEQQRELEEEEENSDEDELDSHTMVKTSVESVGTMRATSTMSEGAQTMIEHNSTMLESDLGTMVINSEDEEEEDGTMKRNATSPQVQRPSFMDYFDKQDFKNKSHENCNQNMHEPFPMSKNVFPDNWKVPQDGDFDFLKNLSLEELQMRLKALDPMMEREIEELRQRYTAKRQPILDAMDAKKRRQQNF

Question: How did the Kd turn out when `CN1CCC(COc2cnc(-c3cccc(Cn4nc(-c5cccc(C#N)c5)ccc4=O)c3)nc2)CC1` [TEPOTINIB] was run?
Answer: The Kd was > 30 µM (inactive).

Question: Which Kd does the source give for `O=c1sn(-c2cccc3ccccc23)c(=O)n1Cc1ccccc1` [TIDEGLUSIB] here?
Answer: Its Kd is > 30 µM (inactive).

Question: For `COc1cc2nccc(Oc3ccc(NC(=O)Nc4cc(C)on4)c(Cl)c3)c2cc1OC` [TIVOZANIB], which Kd is on record?
Answer: Its Kd is > 30 µM (inactive).

Question: Which Kd does the source give for `CC(=O)Nc1cccc(-n2c(=O)n(C3CC3)c(=O)c3c(Nc4ccc(I)cc4F)n(C)c(=O)c(C)c32)c1` [TRAMETINIB] here?
Answer: The Kd was > 30 µM (inactive).

Biological target: T4, Serine/threonine-protein kinase ULK3 (Homo sapiens, UniProt Q6PHR2)
T4 sequence (Q6PHR2 whole entry): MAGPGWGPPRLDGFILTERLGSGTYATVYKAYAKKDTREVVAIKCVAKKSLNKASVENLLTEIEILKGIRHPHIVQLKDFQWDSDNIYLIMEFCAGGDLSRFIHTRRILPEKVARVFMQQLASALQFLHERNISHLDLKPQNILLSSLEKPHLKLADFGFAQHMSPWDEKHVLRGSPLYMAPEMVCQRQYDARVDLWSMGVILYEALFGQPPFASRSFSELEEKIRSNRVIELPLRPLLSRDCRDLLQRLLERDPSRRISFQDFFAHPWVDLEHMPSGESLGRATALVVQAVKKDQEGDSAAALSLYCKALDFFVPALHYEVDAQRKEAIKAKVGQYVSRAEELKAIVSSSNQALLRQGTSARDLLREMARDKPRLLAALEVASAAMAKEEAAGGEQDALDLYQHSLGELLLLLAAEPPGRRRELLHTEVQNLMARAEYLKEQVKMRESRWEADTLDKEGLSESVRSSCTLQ

Question: With `CN1CCC(COc2cnc(-c3cccc(Cn4nc(-c5cccc(C#N)c5)ccc4=O)c3)nc2)CC1` [TEPOTINIB] as the compound, how does the Kd read?
Answer: The Kd was > 30 µM (inactive).

Question: How did the Kd turn out when `O=c1sn(-c2cccc3ccccc23)c(=O)n1Cc1ccccc1` [TIDEGLUSIB] was run?
Answer: The Kd was > 30 µM (inactive).

Question: For `COc1cc2nccc(Oc3ccc(NC(=O)Nc4cc(C)on4)c(Cl)c3)c2cc1OC` [TIVOZANIB], which Kd is on record?
Answer: Its Kd is > 30 µM (inactive).

Question: Which Kd does the source give for `CC(=O)Nc1cccc(-n2c(=O)n(C3CC3)c(=O)c3c(Nc4ccc(I)cc4F)n(C)c(=O)c(C)c32)c1` [TRAMETINIB] here?
Answer: Its Kd is > 30 µM (inactive).

Biological target: T5, Serine/threonine-protein kinase Nek3 (Homo sapiens, UniProt P51956)
T5 sequence (P51956 whole entry): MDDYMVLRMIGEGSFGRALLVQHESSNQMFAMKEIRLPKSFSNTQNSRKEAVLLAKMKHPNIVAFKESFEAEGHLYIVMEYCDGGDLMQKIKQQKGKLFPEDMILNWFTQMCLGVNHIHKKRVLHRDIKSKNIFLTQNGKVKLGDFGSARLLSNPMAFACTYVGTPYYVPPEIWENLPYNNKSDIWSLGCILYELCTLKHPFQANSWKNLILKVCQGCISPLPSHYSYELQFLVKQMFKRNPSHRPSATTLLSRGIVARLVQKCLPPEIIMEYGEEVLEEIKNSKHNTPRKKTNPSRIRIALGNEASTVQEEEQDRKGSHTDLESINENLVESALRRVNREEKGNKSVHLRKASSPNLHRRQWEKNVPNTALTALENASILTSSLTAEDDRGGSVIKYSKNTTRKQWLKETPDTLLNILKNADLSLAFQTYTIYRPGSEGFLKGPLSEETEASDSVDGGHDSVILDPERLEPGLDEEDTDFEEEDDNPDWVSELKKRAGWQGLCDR

Question: How did the Kd turn out when `CN1CCC(COc2cnc(-c3cccc(Cn4nc(-c5cccc(C#N)c5)ccc4=O)c3)nc2)CC1` [TEPOTINIB] was run?
Answer: The Kd was > 30 µM (inactive).

Question: How did the Kd turn out when `O=c1sn(-c2cccc3ccccc23)c(=O)n1Cc1ccccc1` [TIDEGLUSIB] was run?
Answer: Its Kd is > 30 µM (inactive).

Question: How did the Kd turn out when `COc1cc2nccc(Oc3ccc(NC(=O)Nc4cc(C)on4)c(Cl)c3)c2cc1OC` [TIVOZANIB] was run?
Answer: The Kd was > 30 µM (inactive).

Question: How did the Kd turn out when `CC(=O)Nc1cccc(-n2c(=O)n(C3CC3)c(=O)c3c(Nc4ccc(I)cc4F)n(C)c(=O)c(C)c32)c1` [TRAMETINIB] was run?
Answer: Its Kd is > 30 µM (inactive).

Biological target: Tyrosine-protein kinase ABL2 (Homo sapiens, UniProt P42684)
Sequence (P42684 whole entry): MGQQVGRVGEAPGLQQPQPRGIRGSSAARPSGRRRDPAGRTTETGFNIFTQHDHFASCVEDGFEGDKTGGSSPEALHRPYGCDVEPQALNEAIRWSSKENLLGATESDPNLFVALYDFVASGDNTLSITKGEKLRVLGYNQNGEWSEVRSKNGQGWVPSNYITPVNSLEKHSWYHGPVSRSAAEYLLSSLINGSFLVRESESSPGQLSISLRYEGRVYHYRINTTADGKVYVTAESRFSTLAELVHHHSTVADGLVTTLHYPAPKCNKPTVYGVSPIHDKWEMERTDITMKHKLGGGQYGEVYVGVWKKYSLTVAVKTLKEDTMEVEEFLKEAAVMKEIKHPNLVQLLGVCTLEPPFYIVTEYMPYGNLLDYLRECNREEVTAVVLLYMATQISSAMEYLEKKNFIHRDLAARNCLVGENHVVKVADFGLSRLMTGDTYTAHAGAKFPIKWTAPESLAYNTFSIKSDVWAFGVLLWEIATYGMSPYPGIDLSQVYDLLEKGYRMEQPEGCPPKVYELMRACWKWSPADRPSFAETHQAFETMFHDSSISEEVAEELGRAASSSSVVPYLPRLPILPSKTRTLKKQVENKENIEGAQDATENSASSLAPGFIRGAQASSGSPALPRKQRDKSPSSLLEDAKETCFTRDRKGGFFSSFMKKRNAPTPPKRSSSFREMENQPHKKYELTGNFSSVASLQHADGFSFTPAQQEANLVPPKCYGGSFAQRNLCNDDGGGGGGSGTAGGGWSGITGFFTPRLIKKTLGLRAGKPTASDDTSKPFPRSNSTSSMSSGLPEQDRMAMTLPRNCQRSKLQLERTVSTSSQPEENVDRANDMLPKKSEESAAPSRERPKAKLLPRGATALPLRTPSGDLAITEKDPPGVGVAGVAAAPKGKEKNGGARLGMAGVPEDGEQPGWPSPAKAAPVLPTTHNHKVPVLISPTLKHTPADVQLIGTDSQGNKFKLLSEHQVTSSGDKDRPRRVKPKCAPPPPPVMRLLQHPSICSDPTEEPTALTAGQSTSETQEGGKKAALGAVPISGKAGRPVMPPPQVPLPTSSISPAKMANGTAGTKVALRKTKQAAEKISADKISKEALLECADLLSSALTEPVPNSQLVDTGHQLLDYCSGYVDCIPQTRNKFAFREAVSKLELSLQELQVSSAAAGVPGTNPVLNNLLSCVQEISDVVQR

Question: For `CN1CCC(COc2cnc(-c3cccc(Cn4nc(-c5cccc(C#N)c5)ccc4=O)c3)nc2)CC1` [TEPOTINIB], which Kd is on record?
Answer: Its Kd is > 30 µM (inactive).

Question: Which Kd does the source give for `O=c1sn(-c2cccc3ccccc23)c(=O)n1Cc1ccccc1` [TIDEGLUSIB] here?
Answer: Its Kd is > 30 µM (inactive).

Question: Which Kd does the source give for `COc1cc2nccc(Oc3ccc(NC(=O)Nc4cc(C)on4)c(Cl)c3)c2cc1OC` [TIVOZANIB] here?
Answer: The Kd was 0.302 µM (active).

Question: For `CC(=O)Nc1cccc(-n2c(=O)n(C3CC3)c(=O)c3c(Nc4ccc(I)cc4F)n(C)c(=O)c(C)c32)c1` [TRAMETINIB], which Kd is on record?
Answer: Its Kd is > 30 µM (inactive).

— ChEMBL document CHEMBL3991601, “The target landscape of clinical kinase drugs” (Science, 2017)
